Assay results from ChEMBL document CHEMBL1144194, “Initial SAR studies on apamin-displacing 2-aminothiazole blockers of calcium-activated small conductance potassium channels” (Bioorg Med Chem Lett, 2008).
Active and inactive are the calls of the source. The rule behind the calls is not given here. Peptide text beside a SMILES is read from it.

Key:
[1] = target: T1, Small conductance calcium-activated potassium channel protein 3 (Homo sapiens, UniProt Q9UGI6); assay: Inhibition of Kca2.3 channel expressed in HEK293 cells at 30 uM by thallium flux assay; assay type: cell-based
T1 sequence (Q9UGI6 whole entry): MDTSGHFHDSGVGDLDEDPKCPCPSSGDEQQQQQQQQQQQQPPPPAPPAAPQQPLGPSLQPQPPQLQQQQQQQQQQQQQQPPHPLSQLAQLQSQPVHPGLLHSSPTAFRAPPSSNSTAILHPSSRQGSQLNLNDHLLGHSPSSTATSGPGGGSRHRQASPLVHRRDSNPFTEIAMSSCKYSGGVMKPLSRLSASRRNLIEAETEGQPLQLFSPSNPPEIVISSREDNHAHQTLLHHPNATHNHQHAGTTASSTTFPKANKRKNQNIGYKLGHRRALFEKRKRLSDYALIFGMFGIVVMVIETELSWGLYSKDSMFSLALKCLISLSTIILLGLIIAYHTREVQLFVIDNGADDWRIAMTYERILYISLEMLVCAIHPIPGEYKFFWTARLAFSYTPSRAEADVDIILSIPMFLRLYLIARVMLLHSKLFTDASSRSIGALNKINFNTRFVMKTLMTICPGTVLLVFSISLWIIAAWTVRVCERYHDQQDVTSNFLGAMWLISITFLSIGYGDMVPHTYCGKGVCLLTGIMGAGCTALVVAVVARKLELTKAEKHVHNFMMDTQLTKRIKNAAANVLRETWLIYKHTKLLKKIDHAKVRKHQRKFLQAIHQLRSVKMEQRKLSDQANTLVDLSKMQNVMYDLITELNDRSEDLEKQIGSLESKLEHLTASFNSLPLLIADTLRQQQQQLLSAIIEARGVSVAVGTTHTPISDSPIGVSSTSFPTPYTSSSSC

[2] = target: Intermediate conductance calcium-activated potassium channel protein 4 (Homo sapiens) (UniProt O15554); assay: Inhibition of Kca3.1 channel expressed in HEK293 cells at 30 uM by thallium flux assay; assay type: cell-based
Intermediate conductance calcium-activated potassium channel protein 4 (Homo sapiens), sequence (O15554 whole entry): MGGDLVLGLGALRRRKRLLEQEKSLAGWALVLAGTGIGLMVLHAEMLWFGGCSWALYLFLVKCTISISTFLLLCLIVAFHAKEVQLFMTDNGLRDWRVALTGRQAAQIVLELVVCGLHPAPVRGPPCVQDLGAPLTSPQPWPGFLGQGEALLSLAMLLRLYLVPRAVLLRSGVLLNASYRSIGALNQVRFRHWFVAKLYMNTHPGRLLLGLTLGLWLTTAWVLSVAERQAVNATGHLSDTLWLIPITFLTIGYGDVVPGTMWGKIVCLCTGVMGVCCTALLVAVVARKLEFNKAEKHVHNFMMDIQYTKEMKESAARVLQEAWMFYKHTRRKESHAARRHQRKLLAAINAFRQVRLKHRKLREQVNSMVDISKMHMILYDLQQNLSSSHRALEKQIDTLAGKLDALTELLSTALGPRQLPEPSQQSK

[3] = target: T1, Small conductance calcium-activated potassium channel protein 3; assay: Inhibition of Kca2.3 channel expressed in HEK293 cells by thallium flux assay; assay type: cell-based
[4] = Inhibition of Kca channel
[5] = Inhibition of guinea-pig Kca channel; design: species or system Cavia porcellus
[6] = target: Small conductance calcium-activated potassium channel protein 1 (Homo sapiens, UniProt Q92952); assay: Inhibition of Kca2.1 channel expressed in HEK293 cells by thallium flux assay; assay type: cell-based
Small conductance calcium-activated potassium channel protein 1, sequence (Q92952 whole entry): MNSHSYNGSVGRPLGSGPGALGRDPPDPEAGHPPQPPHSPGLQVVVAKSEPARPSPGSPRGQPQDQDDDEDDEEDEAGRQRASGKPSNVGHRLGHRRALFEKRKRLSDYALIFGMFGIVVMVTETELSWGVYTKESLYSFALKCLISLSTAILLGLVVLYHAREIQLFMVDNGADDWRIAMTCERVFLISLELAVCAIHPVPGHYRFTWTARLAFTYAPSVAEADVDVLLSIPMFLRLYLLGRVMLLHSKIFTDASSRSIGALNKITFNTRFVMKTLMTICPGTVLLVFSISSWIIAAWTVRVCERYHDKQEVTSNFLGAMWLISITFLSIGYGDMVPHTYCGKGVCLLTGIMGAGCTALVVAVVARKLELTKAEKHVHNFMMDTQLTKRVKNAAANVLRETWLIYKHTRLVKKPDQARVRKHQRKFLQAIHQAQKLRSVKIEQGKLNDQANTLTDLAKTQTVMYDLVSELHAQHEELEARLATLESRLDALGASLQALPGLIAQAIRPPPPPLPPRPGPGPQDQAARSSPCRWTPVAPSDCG

[7] = target: T1, Small conductance calcium-activated potassium channel protein 3; assay: Inhibition of Kca2.3 channel expressed in HEK293 cells by electrophysiology assay; assay type: cell-based
[8] = target: Intermediate conductance calcium-activated potassium channel protein 4 (Homo sapiens) (UniProt O15554); assay: Inhibition of Kca3.1 channel expressed in HEK293 cells by thallium flux assay; assay type: cell-based
[9] = target: T2, Small conductance calcium-activated potassium channel protein 2 (Homo sapiens, UniProt Q9H2S1); assay: Displacement of [125I]apamin from Kca2.2 channel expressed in HEK293 cells; assay type: cell-based
T2 sequence (Q9H2S1 whole entry): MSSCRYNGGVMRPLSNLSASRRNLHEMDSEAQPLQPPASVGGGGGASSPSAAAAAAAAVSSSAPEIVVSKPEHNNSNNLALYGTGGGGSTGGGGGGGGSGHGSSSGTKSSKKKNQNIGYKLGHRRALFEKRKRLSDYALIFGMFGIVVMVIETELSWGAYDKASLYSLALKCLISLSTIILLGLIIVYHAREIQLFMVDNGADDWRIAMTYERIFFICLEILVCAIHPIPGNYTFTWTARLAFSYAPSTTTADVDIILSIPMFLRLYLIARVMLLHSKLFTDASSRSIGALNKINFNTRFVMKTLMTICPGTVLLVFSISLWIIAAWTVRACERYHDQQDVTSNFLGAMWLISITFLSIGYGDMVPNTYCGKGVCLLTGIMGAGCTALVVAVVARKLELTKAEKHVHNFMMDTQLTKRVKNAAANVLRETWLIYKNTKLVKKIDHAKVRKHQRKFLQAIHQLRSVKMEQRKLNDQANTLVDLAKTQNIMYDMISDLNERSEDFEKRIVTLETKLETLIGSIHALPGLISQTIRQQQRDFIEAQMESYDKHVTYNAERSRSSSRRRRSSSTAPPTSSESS

[10] = target: T1, Small conductance calcium-activated potassium channel protein 3; assay: Displacement of [125I]apamin from Kca2.3 channel expressed in HEK293 cells by scintillation proximity assay; assay type: cell-based
[11] = target: T2, Small conductance calcium-activated potassium channel protein 2; assay: Inhibition of Kca2.2 channel expressed in HEK293 cells by thallium flux assay; assay type: cell-based

Row | Structure (SMILES) | inhibition [1] [%] | IC50 [3] [µM] | other results
1 | Cc1ccnc(Nc2nc(-c3ccccn3)cs2)c1 | 98 | – | inhibition [2]: 10%
2 | c1ccc(-c2csc(Nc3ccncc3)n2)nc1 | 14 | > 30 | –
3 | Ic1ccc(Nc2nc(-c3ccccn3)cs2)nc1 | 29 | > 30 | –
4 | c1ccc(Nc2nc(-c3ccncc3)cs2)nc1 | – | > 30 | –
5 | c1cc2cc(c1)C[n+]1ccc(c3ccccc31)NCc1ccc(cc1)CNc1cc[n+](c3ccccc13)C2 | – | – | IC50 [4]: 3 nM
6 | c1ccc(-c2csc(Nc3cccnc3)n2)nc1 | 45 | – | –
7 | c1ccc(Nc2nc(-c3ccccc3)cs2)cc1 | 18 | > 30 | –
8 | CC[C@H](C)[C@H](NC(=O)[C@H](CS)NC(=O)[C@H](CCCCN)NC(=O)CNC(=O)[C@H](CC(C)C)NC(=O)[C@H](CC(C)C)NC(=O)CNC(=O)[C@H](CC(C)C)NC(=O)[C@H](CO)NC(=O)[C@H](CCCNC(=N)N)NC(=O)[C@H](CS)NC(=O)[C@H](CO)NC(=O)[C@H](CC(C)C)NC(=O)[C@H](CCC(N)=O)NC(=O)[C@H](CS)NC(=O)[C@H](CCSC)NC(=O)[C@H](CCCNC(=N)N)NC(=O)[C@H](CC(C)C)NC(=O)[C@H](CC(N)=O)NC(=O)[C@H](CS)NC(=O)[C@H](Cc1ccccc1)NC(=O)[C@H](C)N)C(=O)NCC(=O)N[C@@H](CC(=O)O)C(=O)N[C@@H](CCCCN)C(=O)N[C@@H](CS)C(=O)N[C@@H](CCC(=O)O)C(=O)N[C@@H](CS)C(=O)N[C@H](C(=O)N[C@@H](CCCCN)C(=O)N[C@@H](Cc1cnc[nH]1)C(=O)O)C(C)C [Scyllatoxin] (H-AFCNLRMCQLSCRSLGLLGKCIGDKCECVKH-OH) | – | – | Ki [5]: 0.075 nM
9 | c1ccc(Nc2nc(-c3cccnc3)cs2)nc1 | 14 | > 30 | –
10 | c1ccc(-c2csc(Nc3ncccn3)n2)nc1 | 24 | > 30 | –
11 | c1ccc(Cc2nc(-c3ccccn3)cs2)nc1 | 15 | > 30 | –
12 | c1ccc2c(c1)CCC[C@H]2Nc1nc2ccccc2[nH]1 | – | – | IC50 [4]: 500 nM
13 | c1ccc(Nc2nc(-c3ccccn3)cs2)nc1 | 89 | 0.543 | IC50 [6]: 43 nM; IC50 [7]: 290 nM; Activity [8]: inactive; IC50 [9]: 543 nM; IC50 [10]: 25 nM; IC50 [11]: 123 nM
14 | FC(F)(F)c1cnc(Nc2nc(-c3ccccn3)cs2)c(Cl)c1 | 8 | > 30 | –
15 | c1ccc(Nc2nc(-c3ccccn3)cs2)cc1 | 9 | – | –
16 | Cc1cc(N)c2ccccc2[n+]1CCCCCCCCCC[n+]1c(C)cc(N)c2ccccc21 [DEQUALINIUM CHLORIDE] | – | 1.3 | IC50 [7]: 2000 nM; IC50 [4]: 1000 nM
17 | c1ccc(-c2csc(-c3ccccn3)n2)nc1 | 16 | > 30 | –
